Active and inactive are the calls of the source.
Experiments:
Paired box protein Pax-8 = Paired box protein Pax-8 (Homo sapiens, UniProt Q06710); experiment: PAX8 transcriptional activity inhibition in RMG-I – RMG-I cells, luciferase, cherry-pick, dose response (AID 687027); assay type: functional, cell-based;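 note: luciferase reporter driven by Pax8 target thyroperoxidase promoter measured by SteadyGlo luminescence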
[1] = OVCAR8 cell viability loss – plate reader, dry powder samples, PAX8 project, dose response (AID 743197); assay type: functional, cell-based; details: OVCAR-8
[2] = microbe, parasite or virus in culture; assay type: functional; details: Mycobacterium tuberculosis
[3] = viability of PTEN-deleted HCT116 cells – cell-based, HCT116 PTEN knockout, dose response (AID 1047); assay type: functional;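 note: HCT116 colon tumor cells with PTEN knocked out; cells exposed to compound for 60 hours before readout; potency for loss of cell viability measured by luminescence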
[4] = viability of HCT116 lacking mutant beta-catenin – cell-based, human colon tumor, dose response (AID 1045); assay type: functional;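 note: HCT116 colon tumor cells with beta catenin knocked out; cells exposed to compound for 60 hours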
INS1 = experiment: INS-1E survival protection against cytokine death – cell-based, luminescence, retest, dose response (AID 449756); assay type: functional; details: Rattus norvegicus;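 note: cell death triggered by IL-1 beta plus TNF-alpha plus IFN-gamma mixture; protective hits raise ATP signal compared with cytokine alone wells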
Aminopeptidase N = molecular target: T1, Aminopeptidase N (Plasmodium falciparum FcB1/Columbia, UniProt O96935); experiment: malaria alanyl aminopeptidase activity blockers – biochemical, fluorogenic H-Leu-NHMec substrate, 1536-well (AID 1445); set-up: species or system Plasmodium falciparum 3D7, 3D7
T1 sequence (O96935 whole entry): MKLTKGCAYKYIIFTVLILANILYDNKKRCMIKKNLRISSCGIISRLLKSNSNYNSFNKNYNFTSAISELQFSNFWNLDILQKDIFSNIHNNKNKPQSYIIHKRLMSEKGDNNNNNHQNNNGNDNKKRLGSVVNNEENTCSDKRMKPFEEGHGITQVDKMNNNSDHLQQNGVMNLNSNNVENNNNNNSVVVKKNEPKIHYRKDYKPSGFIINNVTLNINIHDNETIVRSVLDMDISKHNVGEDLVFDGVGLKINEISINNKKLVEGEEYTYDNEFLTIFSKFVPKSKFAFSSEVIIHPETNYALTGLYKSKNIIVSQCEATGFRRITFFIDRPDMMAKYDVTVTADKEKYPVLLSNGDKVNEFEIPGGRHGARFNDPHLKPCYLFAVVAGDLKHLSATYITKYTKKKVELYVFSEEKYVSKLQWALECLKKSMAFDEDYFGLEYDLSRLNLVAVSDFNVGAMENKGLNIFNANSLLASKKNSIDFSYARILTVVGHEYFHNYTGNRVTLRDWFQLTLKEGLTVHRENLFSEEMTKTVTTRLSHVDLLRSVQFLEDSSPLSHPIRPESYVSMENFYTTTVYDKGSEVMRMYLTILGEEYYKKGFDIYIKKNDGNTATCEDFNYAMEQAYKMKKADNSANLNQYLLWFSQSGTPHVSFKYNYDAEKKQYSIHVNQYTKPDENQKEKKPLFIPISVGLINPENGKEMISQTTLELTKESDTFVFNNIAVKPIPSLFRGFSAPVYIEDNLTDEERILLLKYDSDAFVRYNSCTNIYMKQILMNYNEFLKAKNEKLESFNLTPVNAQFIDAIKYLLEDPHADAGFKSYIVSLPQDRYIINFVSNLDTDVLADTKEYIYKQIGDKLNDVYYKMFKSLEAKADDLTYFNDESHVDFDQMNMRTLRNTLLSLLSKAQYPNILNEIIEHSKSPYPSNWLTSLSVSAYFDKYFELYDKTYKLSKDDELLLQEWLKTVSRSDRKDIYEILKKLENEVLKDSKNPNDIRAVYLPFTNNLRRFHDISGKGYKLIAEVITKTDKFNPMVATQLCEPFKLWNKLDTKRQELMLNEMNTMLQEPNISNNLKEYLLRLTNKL

[5] = OVCAR-3 cell viability loss – plate reader, dry powder samples, PAX8 inhibitor project, dose response (AID 743044); assay type: functional, cell-based
[6] = molecular target: FAD-linked sulfhydryl oxidase ALR (Homo sapiens, UniProt P55789); experiment: ALR-catalysed DTT oxidation blockers – biochemical, H2O2 detection, luminescence, cherry-pick, dose response (AID 493248)
[7] = P. falciparum Dd2 growth inhibitors, dose response, SYBR Green, cherry-picked samples (AID 1159567); assay type: functional, cell-based
cells [8] = assay type: functional, cell-based
cells [9] = assay type: functional, cell-based; remark: listed apart in the source
[10] = molecular target: Voltage-dependent T-type calcium channel subunit alpha-1H (Homo sapiens, UniProt O95180); assay type: functional;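 note: channel activity triggered by adding a high calcium stimulation buffer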
[11] = luciferase reporter signal suppression in cells – H4 neuroglioma cells, luminescence, dose response (AID 1990); assay type: functional, cell-based
[12] = Luminescence Cell-Based Dose Response HTS to Identify Inhibitors of 5'UTR Stem-Loop Driven Prion Protein mRNA Translation in H4 Neuroglioblastoma Cells. [Related pubchem assays: 1827 (Project Summary), 1813 (Primary HTS)]; assay type: functional
[13] = alpha-synuclein stem-loop luciferase translation blockers – H4 neuroglioma cells, luminescence, confirmation (AID 1988); assay type: functional, cell-based
Protein skinhead-1 = molecular target: T2, Protein skinhead-1 (Caenorhabditis elegans, UniProt P34707); assay type: functional
T2 sequence (P34707 whole entry): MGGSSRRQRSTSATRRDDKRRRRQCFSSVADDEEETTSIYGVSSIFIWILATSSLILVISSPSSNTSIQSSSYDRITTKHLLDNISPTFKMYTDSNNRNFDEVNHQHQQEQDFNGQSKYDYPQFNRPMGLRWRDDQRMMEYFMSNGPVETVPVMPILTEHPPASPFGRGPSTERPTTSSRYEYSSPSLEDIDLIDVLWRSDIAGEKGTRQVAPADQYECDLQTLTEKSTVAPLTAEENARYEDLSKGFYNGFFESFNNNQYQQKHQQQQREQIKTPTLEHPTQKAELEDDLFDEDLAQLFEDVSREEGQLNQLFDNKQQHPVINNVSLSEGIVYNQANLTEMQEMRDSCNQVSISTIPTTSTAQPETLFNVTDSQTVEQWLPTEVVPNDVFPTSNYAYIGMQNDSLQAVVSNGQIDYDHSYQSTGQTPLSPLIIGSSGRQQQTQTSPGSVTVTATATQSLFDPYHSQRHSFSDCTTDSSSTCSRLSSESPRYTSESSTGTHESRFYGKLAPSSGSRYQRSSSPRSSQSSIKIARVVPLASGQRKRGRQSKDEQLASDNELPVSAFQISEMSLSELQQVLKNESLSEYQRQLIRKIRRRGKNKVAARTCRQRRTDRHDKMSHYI

[14] = blockers of bursicon-stimulated LGR2 cAMP reporter – cell-based, HEK293, CRE-luciferase reporter, cherry pick, set 2, dose response (AID 743343); assay type: functional;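 note: transfected cells were stimulated with diluted bursicon conditioned medium after compound addition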
[15] = blockade of melanocortin 4 receptor signaling – cell-based, plate reader, cherry pick, counter-screen for LGR2 antagonist project, dose response (AID 743444); assay type: functional;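 note: transfected HEK 293 cells stimulated with alpha-MSH peptide; potency of inhibitors of the alpha-MSH evoked signal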
[16] = Trypanosoma cruzi growth suppression in host cells – NIH3T3 host cells, beta-gal luminescence, confirmation (AID 2044); assay type: functional, cell-based;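 note: intracellular parasites grown in NIH/3T3 mouse fibroblasts as host cells; luminescent beta-galactosidase reporter signal from transgenic T. cruzi replicating inside host cells; inhibitors lower the luminescence signal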
[17] = NIH3T3 cell viability loss – ATP luminescence, mouse fibroblasts, counter-screen, dose response (AID 2010); assay type: functional, cell-based;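 note: cells exposed to compound for about 90 hours before reading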

Chain of Voltage-dependent T-type calcium channel subunit alpha-1H (O95180 whole entry): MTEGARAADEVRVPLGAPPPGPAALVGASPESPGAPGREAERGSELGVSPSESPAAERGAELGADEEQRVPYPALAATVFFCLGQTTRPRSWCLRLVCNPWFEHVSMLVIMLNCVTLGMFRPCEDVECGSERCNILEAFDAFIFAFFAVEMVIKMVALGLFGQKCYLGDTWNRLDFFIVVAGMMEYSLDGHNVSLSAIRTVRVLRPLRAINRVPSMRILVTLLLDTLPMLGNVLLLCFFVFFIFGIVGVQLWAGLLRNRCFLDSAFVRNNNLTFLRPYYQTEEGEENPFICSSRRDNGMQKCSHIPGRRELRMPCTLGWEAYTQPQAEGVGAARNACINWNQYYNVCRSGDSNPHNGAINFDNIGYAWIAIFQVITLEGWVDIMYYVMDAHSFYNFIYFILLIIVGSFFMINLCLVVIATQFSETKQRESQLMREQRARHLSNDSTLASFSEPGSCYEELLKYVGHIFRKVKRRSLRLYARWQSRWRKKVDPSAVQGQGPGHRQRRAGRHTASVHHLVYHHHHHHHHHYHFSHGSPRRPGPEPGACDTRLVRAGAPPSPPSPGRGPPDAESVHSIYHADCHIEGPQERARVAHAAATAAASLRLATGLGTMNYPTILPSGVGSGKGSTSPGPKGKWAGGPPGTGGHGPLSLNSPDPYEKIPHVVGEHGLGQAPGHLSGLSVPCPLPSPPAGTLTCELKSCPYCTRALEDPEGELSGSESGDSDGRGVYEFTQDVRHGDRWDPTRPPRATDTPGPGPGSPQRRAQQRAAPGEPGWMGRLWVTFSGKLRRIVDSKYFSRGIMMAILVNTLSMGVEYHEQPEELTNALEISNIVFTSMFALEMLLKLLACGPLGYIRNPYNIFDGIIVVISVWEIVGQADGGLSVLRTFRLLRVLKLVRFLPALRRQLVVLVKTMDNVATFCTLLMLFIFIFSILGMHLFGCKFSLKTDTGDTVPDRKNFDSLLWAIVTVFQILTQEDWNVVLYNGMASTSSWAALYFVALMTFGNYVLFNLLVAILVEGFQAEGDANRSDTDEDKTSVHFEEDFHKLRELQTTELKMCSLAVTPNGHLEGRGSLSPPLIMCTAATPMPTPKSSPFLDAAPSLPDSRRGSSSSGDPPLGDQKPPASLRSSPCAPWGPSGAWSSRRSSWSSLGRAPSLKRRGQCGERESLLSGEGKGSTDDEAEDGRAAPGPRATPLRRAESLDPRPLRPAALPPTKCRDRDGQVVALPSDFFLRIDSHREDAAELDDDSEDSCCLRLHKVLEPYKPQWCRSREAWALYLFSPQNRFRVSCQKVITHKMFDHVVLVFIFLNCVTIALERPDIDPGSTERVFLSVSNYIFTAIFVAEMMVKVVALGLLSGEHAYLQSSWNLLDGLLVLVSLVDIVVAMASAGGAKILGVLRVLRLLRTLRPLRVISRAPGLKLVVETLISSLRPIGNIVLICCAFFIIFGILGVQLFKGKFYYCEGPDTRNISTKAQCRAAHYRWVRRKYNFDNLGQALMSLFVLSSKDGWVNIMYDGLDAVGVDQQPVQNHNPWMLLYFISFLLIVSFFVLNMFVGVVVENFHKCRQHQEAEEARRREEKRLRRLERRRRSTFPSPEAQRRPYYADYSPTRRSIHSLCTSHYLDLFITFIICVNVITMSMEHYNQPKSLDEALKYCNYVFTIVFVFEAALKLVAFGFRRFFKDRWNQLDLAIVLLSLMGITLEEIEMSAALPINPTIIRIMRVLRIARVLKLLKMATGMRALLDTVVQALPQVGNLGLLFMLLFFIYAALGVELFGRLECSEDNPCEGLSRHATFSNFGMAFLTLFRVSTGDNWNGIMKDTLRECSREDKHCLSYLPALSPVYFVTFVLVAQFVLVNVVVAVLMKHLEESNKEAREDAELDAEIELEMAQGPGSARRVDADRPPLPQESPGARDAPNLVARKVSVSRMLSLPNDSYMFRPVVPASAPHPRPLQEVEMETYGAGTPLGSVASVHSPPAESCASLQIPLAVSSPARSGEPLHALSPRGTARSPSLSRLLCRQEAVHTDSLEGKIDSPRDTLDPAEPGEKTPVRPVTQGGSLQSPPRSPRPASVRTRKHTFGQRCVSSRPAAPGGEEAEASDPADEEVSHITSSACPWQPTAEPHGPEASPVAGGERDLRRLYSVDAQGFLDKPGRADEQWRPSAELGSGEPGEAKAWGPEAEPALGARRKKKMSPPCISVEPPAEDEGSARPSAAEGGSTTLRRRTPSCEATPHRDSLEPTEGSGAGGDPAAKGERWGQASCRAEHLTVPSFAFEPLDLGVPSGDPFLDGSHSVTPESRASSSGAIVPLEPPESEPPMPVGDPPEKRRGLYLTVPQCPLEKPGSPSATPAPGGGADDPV
Chain of Paired box protein Pax-8 (Q06710 whole entry): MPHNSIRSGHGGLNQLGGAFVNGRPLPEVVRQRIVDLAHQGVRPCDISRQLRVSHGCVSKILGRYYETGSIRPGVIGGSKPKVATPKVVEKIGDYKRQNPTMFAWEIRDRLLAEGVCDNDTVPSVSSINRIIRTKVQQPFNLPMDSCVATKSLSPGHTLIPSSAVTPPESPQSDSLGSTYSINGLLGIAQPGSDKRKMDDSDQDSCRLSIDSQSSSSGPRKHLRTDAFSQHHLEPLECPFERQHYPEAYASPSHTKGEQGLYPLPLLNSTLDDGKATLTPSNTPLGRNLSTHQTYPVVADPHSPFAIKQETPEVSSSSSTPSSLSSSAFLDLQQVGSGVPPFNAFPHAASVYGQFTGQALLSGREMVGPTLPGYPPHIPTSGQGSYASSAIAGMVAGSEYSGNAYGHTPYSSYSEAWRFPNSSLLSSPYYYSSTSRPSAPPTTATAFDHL
Chain of FAD-linked sulfhydryl oxidase ALR (P55789 whole entry): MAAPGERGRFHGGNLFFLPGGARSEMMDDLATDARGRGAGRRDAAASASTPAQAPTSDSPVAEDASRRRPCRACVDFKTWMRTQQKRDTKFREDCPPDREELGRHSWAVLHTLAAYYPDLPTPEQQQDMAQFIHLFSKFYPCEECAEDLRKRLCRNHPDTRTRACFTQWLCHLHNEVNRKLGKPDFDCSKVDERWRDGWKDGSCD

C[C@@H]1CCCCO[C@@H](CN(C)Cc2ccc(Cl)c(Cl)c2)[C@H](C)CN([C@H](C)CO)C(=O)c2cc(NS(=O)(=O)c3ccc(F)cc3)ccc2O1
AC50 (Paired box protein Pax-8): 8.2 µM (active) | AC50 [1]: > 70 µM (inactive)

CCCOc1ccc(C(=O)c2nc3c(n2O)CCCCC3)cc1
CC50 [2]: > 40 µM (active)

Cc1nc(Nc2ccc(Cl)c(Cl)c2)sc1C(=O)Nc1ccccc1
CC50 [2]: 27.2 µM (active) | EC50 [3]: 19.8 µM (active) | EC50 [4]: 21.9 µM (active) | AC50 (INS1): 7.01 µM (active)

C[C@H](CO)N1C[C@H](C)[C@H](CN(C)S(=O)(=O)c2ccc(F)cc2)OCCCC[C@H](C)Oc2ccc(NC(=O)Nc3ccc(F)cc3)cc2C1=O
AC50 (Paired box protein Pax-8): 7.09 µM (active) | AC50 [1]: > 70 µM (inactive)

CCCCc1cc(=O)oc2c(CN(CC)CC)c(O)c(Cl)cc12
IC50 (Aminopeptidase N): 41.5 µM (active)

C[C@@H]1CN([C@H](C)CO)C(=O)c2cc(NC(=O)Nc3ccccc3)ccc2O[C@@H](C)CCCCO[C@@H]1CN(C)CC1CCCCC1
AC50 (Paired box protein Pax-8): 5.42 µM (active) | AC50 [5]: 34.3 µM (active) | AC50 [1]: 53.5 µM (active)

O=C(O)c1ccc(S(=O)(=O)Nc2ccc(O)c(Sc3nc4ccccc4s3)c2)cc1
IC50 (Aminopeptidase N): 104 µM (active) | AC50 [6]: 0.236 µM (active)

C[C@@H]1CN([C@H](C)CO)C(=O)c2c(c3ccccc3n2C)-c2ccccc2CO[C@H]1CN(C)S(=O)(=O)c1ccsc1
AC50 [7]: 4.22 µM (active)

COc1ccc(-c2cn3nc(SCC(=O)NCC4CCCO4)ccc3n2)cc1 (stereo not drawn)
EC50 (cells [8]): > 350 µM (not active) | EC50 (cells [9]): 9.41 µM (active)

CN(CC(=O)Nc1ccc(F)c(F)c1F)C(=O)/C=C/c1ccc(Cl)cc1
EC50 (cells [8]): > 350 µM (not active) | EC50 (cells [9]): 155 µM (active)

Cc1nc(NCCc2ccccc2)c2oc3ccccc3c2n1
CC50 [2]: 31.6 µM (active)

O=S(=O)(Nc1nc2ccccc2nc1Nc1ccc2c(c1)OCCO2)c1cccs1
EC50 [10]: 9.65 µM (active)

CC(=O)c1cccc(N(C(=O)c2ccccn2)C(C(=O)NC2CCCCC2)c2ccccc2)c1 (stereo not drawn)
EC50 (cells [8]): > 350 µM (not active) | EC50 (cells [9]): > 350 µM (not active)

Cc1nc(CS(=O)(=O)c2ccc(Cl)cc2)cc(Sc2ccccc2Cl)n1
EC50 [10]: 4.3 µM (active)

COc1cc(SC)ccc1C(=O)Nc1ccc(Cl)cn1
EC50 [11]: 4.03 µM (inconclusive) | EC50 [12]: 1.33 µM (active) | EC50 [13]: 0.497 µM (active) | IC50 (Protein skinhead-1): > 100 µM (inactive) | AC50 [14]: 1.59 µM (active) | AC50 [15]: 1.45 µM (active)

CNNC(=O)C(C)NC(=O)c1ccc(Br)cc1 (stereo not drawn)
EC50 (cells [8]): > 350 µM (not active) | EC50 (cells [9]): > 350 µM (not active)

O=C(c1ccc(Cl)cc1Cl)N1CCN(c2ccc(N3CCOCC3)nn2)CC1
EC50 (cells [8]): > 350 µM (not active) | EC50 (cells [9]): > 350 µM (not active)

Cc1ccc(-c2nc(C[S+]([O-])CC(=O)NCc3ccc(Cl)cc3)c(C)o2)cc1 (stereo not drawn)
EC50 [10]: 2 µM (active)

Cc1ccc(C)c(CS(=O)(=O)c2cn(CC(=O)N3CCCCC3)c3ccccc23)c1
IC50 (Aminopeptidase N): 94.5 µM (active)

COc1ccc(/C=N/Nc2ncnc3sc4c(c23)CCCC4)cc1OC
EC50 (cells [8]): > 350 µM (not active) | EC50 (cells [9]): > 350 µM (not active)

O=C(NC1CCN(Cc2ccccc2)CC1)c1cccc(S(=O)(=O)Nc2ccc(SC(F)F)cc2)c1
CC50 [2]: 32.7 µM (active)

Cc1nn(Cc2ccc(Cl)cc2Cl)c(C)c1NC(=O)c1ccc(COc2cc(Cl)ccc2Cl)o1
EC50 [16]: 1.5 µM (active) | EC50 [17]: > 60 µM (not active) | EC50 [10]: 17.5 µM (active)

CCOC(=O)CCCc1ccc(/C(C)=N/NC(N)=S)cc1
CC50 [2]: > 40 µM (active)

COc1ccc(C(=O)NCCCOC(=O)c2ccc(OC)cc2)cc1
EC50 (cells [8]): > 350 µM (not active) | EC50 (cells [9]): > 350 µM (not active)

O=C(O)c1ccccc1-c1nc(-c2ccccc2)c(-c2ccccc2)[nH]1
IC50 (Aminopeptidase N): 46.6 µM (active)

Cc1ccc(S(=O)(=O)NC2=NC(=O)/C(=C\c3ccco3)S2)cc1
IC50 (Aminopeptidase N): 94 µM (active)

CCN1CCN(c2ncnc3ccc(Br)cc23)CC1
EC50 (cells [8]): > 350 µM (not active) | EC50 (cells [9]): > 350 µM (not active)

CCn1c(COc2cccc(C)c2)nc2ccccc21
EC50 [10]: 13 µM (active)

CC(=O)N1CCN(c2ccc(Oc3ccc([N+](=O)[O-])c(C(F)(F)F)c3)cc2)CC1
CC50 [2]: > 40 µM (active) | AC50 (INS1): 5.74 µM (active)

COc1cccc(C#Cc2ccc([C@@H]3[C@@H](C#N)N(C(=O)c4ccccn4)[C@H]3CO)cc2)c1
AC50 [7]: 3.29 µM (active)

O=C(NC(=S)Nc1cccc([N+](=O)[O-])c1)c1ccco1
EC50 (cells [8]): > 350 µM (not active) | EC50 (cells [9]): > 350 µM (not active)

O=C(/C=C/c1cccnc1)c1cccc(O)c1
CC50 [2]: 15.6 µM (active)

CC(=O)Nc1ccc(S(=O)(=O)Oc2cccc(/C=N/NC3=NC(=O)C(CC(=O)O)S3)c2)cc1 (stereo not drawn)
IC50 (Aminopeptidase N): 52.8 µM (active)

C[C@@H]1CN([C@H](C)CO)C(=O)c2cc(NC(=O)Nc3ccccc3)ccc2O[C@@H](C)CCCCO[C@H]1CN(C)C(=O)Nc1ccc(C(F)(F)F)cc1
AC50 (Paired box protein Pax-8): 10.8 µM (active) | AC50 [5]: 46.2 µM (active) | AC50 [1]: > 70 µM (inactive)

COc1ccc(C#Cc2ccc3c(c2)[C@@H]2[C@@H](CCN2C(=O)C2CCCC2)[C@H](CO)N3)cc1
AC50 [7]: 3.97 µM (active)

O=C(CSc1nc(O)c2c(C(F)(F)F)cc(-c3cccs3)nc2n1)NCc1ccco1
IC50 (Aminopeptidase N): 103 µM (active)
